Data from US10758501B2, “Use of histone acetyltransferase inhibitor amidoximes as anti-proliferative agents” (Texas Woman's University, priority 2017, dated 2020).
Several values for one entry are separate records, joined by “and”; a condition that tells them apart may be missing. Equal values may be shown once. Read-outs that look alike come from different tables or passages of the source.

Experiments:
[1] = tested on: HCT-116 (colorectal carcinoma); experiment: MTS growth inhibition assay, HCT-116; assay type: cell-based, human
Procedure: In Table 1, the various compounds listed were tested for induction of death in various malignant human cell lines and were compared to the commercial HAT inhibitor garcinol (0.2-500 μM). Specifically, Table 1 describes the summary of the growth inhibitory effect (in μM) of nine novel bisamidoximes on six malignant cell lines, as measured by MTS assay. MTS assay is a colorimetric based cytotoxicity assay that determines the number of viable cells. The numbers in the table represent Growth Inhibition GI50 (±standard deviation), which is the concentration of the drug where 50% of the cells are killed. Garcinol, a known HAT inhibitor, was used as a positive control. The cell lines used were: HCT-116 (colorectal carcinoma), DU-145 (prostate carcinoma), SK-OV-3 (ovarian adenocarcinoma), HLF-a (lung epidermoid carcinoma), MCF-7 & MDA-MB-231 (breast adenocarcinoma) and NHDF (normal human dermal fibroblasts). The cells were treated with compounds JJMB 1-9 for 48 hrs (MCF-7 for 72 hrs) at various concentrations ranging from 0.2 μM to 500 μM. One-way ANOVA was performed to assess the differences between the groups. Differences in means between control and treatment groups were analyzed by post-hoc Dunnett's test, p<0.05. Data is reported as the mean ±SD, n =3. […] The compounds tested (JJMB5, JJMB6, JJMB7, and JJMB9) could efficiently kill several malignant cell-lines in concentration range of micromolars. (See Table 1). […] From these tests it is clear that the compounds affected several cells lines of the three major types of cancers: breast, lung, and colon. […]
(§1) Combination studies of bisamidoximes and cisplatin were performed on human breast cancer cell line MCF-7, human colon cancer cell line HCT-116, and murine mammary malignant cell lines measured by MTS assay. The cells were treated with novel bisamidoximes JJMB 5, 7, and 9, for 48 hours (72 hours for MCF-7), individually or in combination with cisplatin. Growth Inhibition (GI50) was measured. *—Indicates a significant difference when the drugs were used in combination with cisplatin compared to when the drugs were used individually as determined by one-way ANOVA, p≤0.05.

[2] = tested on: MCF-7 (breast adenocarcinoma); experiment: MTS growth inhibition assay, MCF-7; assay type: cell-based, human
Procedure: (§2) In Table 1, the various compounds listed were tested for induction of death in various malignant human cell lines and were compared to the commercial HAT inhibitor garcinol (0.2-500 μM). Specifically, Table 1 describes the summary of the growth inhibitory effect (in μM) of nine novel bisamidoximes on six malignant cell lines, as measured by MTS assay. MTS assay is a colorimetric based cytotoxicity assay that determines the number of viable cells. The numbers in the table represent Growth Inhibition GI50 (±standard deviation), which is the concentration of the drug where 50% of the cells are killed. Garcinol, a known HAT inhibitor, was used as a positive control. The cell lines used were: HCT-116 (colorectal carcinoma), DU-145 (prostate carcinoma), SK-OV-3 (ovarian adenocarcinoma), HLF-a (lung epidermoid carcinoma), MCF-7 & MDA-MB-231 (breast adenocarcinoma) and NHDF (normal human dermal fibroblasts). The cells were treated with compounds JJMB 1-9 for 48 hrs (MCF-7 for 72 hrs) at various concentrations ranging from 0.2 μM to 500 μM. One-way ANOVA was performed to assess the differences between the groups. Differences in means between control and treatment groups were analyzed by post-hoc Dunnett's test, p<0.05. Data is reported as the mean ±SD, n =3. […] The compounds tested (JJMB5, JJMB6, JJMB7, and JJMB9) could efficiently kill several malignant cell-lines in concentration range of micromolars. (See Table 1). […] From these tests it is clear that the compounds affected several cells lines of the three major types of cancers: breast, lung, and colon.
Combination studies performed on human breast cancer cell line MCF-7 and human colon cancer cell line HCT 116 were measured by MTS assay. The cells were treated with novel bisamidoximes JJMB 5, 7, and 9, for 48 hours (72 hours for MCF-7), individually or in combination. Growth Inhibition (GI50) was measured. *—Indicates a significant difference when the drugs were used in combination compared to when the drugs were used individually as determined by one-way ANOVA, p≤0.05.
as §1

[3] = tested on: HLF-a (lung epidermoid carcinoma); experiment: MTS growth inhibition assay, HLF-a; assay type: cell-based; details: Homo sapiens, 48 hrs, 0.2-500 μM, mean ±SD n=3, read-out: Growth Inhibition GI50 (±standard deviation), Lung (HLF-A)
Procedure: as §2

[4] = tested on: MDA-MB-231 (breast adenocarcinoma); experiment: MTS growth inhibition assay, MDA-MB-231; assay type: cell-based; details: Homo sapiens, 48 hrs, 0.2-500 μM, mean ±SD n=3, read-out: Growth Inhibition GI50 (±standard deviation), Breast (MDA-MB-231)
Procedure: as §2

[5] = tested on: DU-145 (prostate carcinoma); experiment: MTS growth inhibition assay, DU-145; assay type: cell-based; details: Homo sapiens, 48 hrs, 0.2-500 μM, mean ±SD n=3, read-out: Growth Inhibition GI50 (±standard deviation), Prostate (DU-145)
Procedure: as §2

[6] = tested on: SK-OV-3 (ovarian adenocarcinoma); experiment: MTS growth inhibition assay, SK-OV-3; assay type: cell-based; details: Homo sapiens, 48 hrs, 0.2-500 μM, mean ±SD n=3, read-out: Growth Inhibition GI50 (±standard deviation), Ovarian (SKOV-3)
Procedure: as §2

[7] = MTS growth inhibition assay, NHDF; assay type: cell-based; details: NHDF (normal human dermal fibroblasts), 0.2-500 μM, read-out: Growth Inhibition GI50 (±standard deviation), Normal (NHDF)
Procedure: as §2

[8] = tested on: murine mammary carcinoma cells 4T1; experiment: Growth inhibition of murine mammary cancer cell line 4T1; assay type: cell-based; details: Mus musculus; 4T1 cells, single drugs; read-out: growth inhibition 50% (GI50) on 4T1 cells
EpH4 cells = experiment: Sensitivity of EpH4 cells to bisamidoximes; assay type: cell-based; details: in vitro cell culture
Procedure: The efficacy of killing malignant cells in mice and slowing down the tumors or eradicating them can be indicative to these compounds' efficacy in humans. To check if the bisamidoximes are potent in mice, breast cancer cells were identified that could be implanted in female mice mammary fat pads. The identified cells were tested to see if they are sensitive to bisamidoximes in vitro (in tube/cell culture).
(§3) At the next stage, we needed to determine whether the mice would tolerate the drugs, or in other words, what would be the maximum tolerated dose (MTD) of each of the bisamidoximes. The three bisamidoximes JJMB5, JJMB7, and JJMB9, as well as a control group of only the vehicle (the solvent used to dissolve the drugs) were injected intraperitoneally (IP) to mice. The protocol included injection of the desired concentration of bisamidoxime over 5 consecutive days, two days of break, and another cycle of 5 successive days of injections.

[9] = Maximum tolerated dose in mice, IP; details: mouse, in vivo, BALB/c strain, 5 consecutive days, two days break, another 5 days
Procedure: as §3

[10] = tested on: TSA-induced hyperacetylation; experiment: Reversion of HDAC-inhibitor (TSA)-induced hyperacetylation; assay type: cell-based, human; details: HCT-116, listed as JJM6
Procedure: To further understand the mechanism of action of the four active compounds (JJMB5, JJMB6, JJMB7, and JJMB9), we performed several experiments that are summarized in Table 2. All the assays were performed on HCT-116 (a colorectal carcinoma), since all of the four specific potent drugs could induce death of these cells. […] Another HAT, GCN5, was not inhibited by any of the compounds. JJMB5, JJM6 and JJMB9 could reverse the activity of an HDAC inhibitor (TSA); thus the hyperacetylation induced by TSA could be reversed by these compounds.
This is another indication that the three compounds, JJMB5, JJMB6, and JJMB9 are HAT inhibitors.

[11] = tested on: 4T1 breast carcinoma cells implanted in mammary fat pad; experiment: 4T1 mammary carcinoma tumor volume in BALB/c mice; assay type: in vivo, mouse; details: 4T1 in mammary fat pad, two 5-day cycles
Procedure: The bisamidoxime JJMB7 was studied to see if the compound can lower the rate of tumor growth and the number and size of metastases in mice. […] FIG. 2 depicts a graph of mammary tumor volumes in JJMB7 treated and untreated control BALB/c mice. In the experiment, six-week-old BALB/c mice were implanted with 10,000 4T1 breast carcinoma cells in the mammary fat pad (MFP). […] JJMB7 was administered for five consecutive days, followed by a two day break, and another five consecutive days of injections. Mice were weighed every day and observed for signs of pain and discomfort. Tumors were visible 7 days after implantation, and tumor dimensions were measured, and volumes were calculated until day-24, when mice were euthanized. A One-Way Repeated Measures ANOVA was performed to determine a statistical significance (p≤0.05).
The murine mammary carcinoma 4T1 cells were implanted in the mammary fat pad of BALB/c female mice (10,000 cells per mice) and a day later we started a protocol of two 5-day cycles (with 2 days break) of chemotherapy delivered IP. The amidoximes were delivered at their MTD level—JJMB5 with 0.26 mg/kg, and JJMB9 with 0.78 mg/kg. One-Way Repeated-Measure ANNOVA was performed to show the significance (p≤0.05, n=10).

[12] = Mouse Liver Microsomes stability; assay type: in vitro ADME; details: Mouse Liver Microsomes (FIG. 5); read-out: t1/2 in Mouse Liver Microsomes
[13] = 48 hours, individually or in combination with cisplatin, read-out: Growth Inhibition (GI50), HCT-116, cisplatin combination study
[14] = Homo sapiens, HCT-116, 48 hrs, 0.2-500 μM, mean ±SD n=3, * = highly purified, more potent batches, read-out: Growth Inhibition GI50 (±standard deviation), Colon (HCT-116)
[15] = Homo sapiens, MCF7, 72 hours, 0.2-500 μM, mean ±SD n=3, * = highly purified, more potent batches, read-out: Growth Inhibition GI50 (±standard deviation), Breast (MCF-7), 72 hours
[16] = Homo sapiens, MCF7, 72 hours, individually or in combination with cisplatin, read-out: Growth Inhibition (GI50), MCF-7, cisplatin combination study
[17] = Homo sapiens, MCF7, 72 hours, individually or in combination, read-out: Growth Inhibition (GI50), MCF-7, bisamidoxime combination study

Row | Structure (SMILES) | GI50 [1, 13] | GI50 ([2]; 72 hours, individually or in combination with cisplatin, read-out: Growth Inhibition (GI50), MCF-7, cisplatin combination study) | GI50 [1, 14] [µM] | GI50 [3] [µM] | GI50 [2, 15] [µM] | GI50 [4] [µM] | GI50 [5] [µM] | GI50 [6] [µM] | GI50 at 48 h [7] [µM] | GI50 [2, 16] [µM] | GI50 [2, 17] [µM] | GI50 [8] [µM] | sensitivity of EpH4 cells to bisamidoximes (EpH4 cells) | MTD [9] [mg/kg] | Reversion of HDAC-inhibitor-induced hyperacetylation [10] | mammary carcinoma tumor volume (FIG. 2) ([11]; BALB/c mice, 1.56 mg/kg IP, until day-24) | breast cancer tumor volume (FIG. 3) ([11]; BALB/c female mice, 0.78 mg/kg IP, p≤0.05, n=10) | half-life [12] [min]
1 | N.N.[Cl][Pt][Cl] [Cisplatin, cisplatin, reference compound] | 68.6 µM and 73 µM and 66.3 µM | 40.8 µM and 48.5 µM |  |  |  |  |  |  |  |  |  |  |  |  |  |  |  | 
2 | C=C(C)[C@@H](CC=C(C)C)C[C@@]12C[C@@H](CC=C(C)C)C(C)(C)[C@@](CC=C(C)C)(C(=O)C(C(=O)c3ccc(O)c(O)c3)=C1O)C2=O [Garcinol, garcinol, reference compound] |  |  | 39 ± 8 | 27 ± 4 | 55 ± 7 | 44 ± 4 | 55 ± 7 | 43 ± 5 | > 500 |  |  |  |  |  |  |  |  | 
3 | Cc1ccc(/C(=N/O)NCCCN/C(=N\O)c2ccc(C)cc2)cc1 [JJMB5] | 19.3 ± 2.4 µM |  | 8.5 | 335 ± 4 | 33.2 | 125 ± 4 | > 500 | > 500 | > 500 | 33.2 ± 6 | 28.2 ± 7.1 | 6.3 ± 2.3 | highly sensitive | 0.26 |  |  |  | 
4 | Cc1ccc(/C(=N/O)NCCCCN/C(=N\O)c2ccc(C)cc2)cc1 [JJMB6] |  |  | 17 ± 4 | > 500 | > 500 | > 500 | > 500 | > 500 | > 500 |  |  |  |  |  | could reverse |  |  | 
5 | Cc1ccc(/C(=N/O)NCCN/C(=N\O)c2ccc(C)cc2)cc1 [JJMB7] | 16.2 ± 2 µM |  | 6.2 | 275 ± 3 | > 500 | 85 ± 3 | > 500 | > 500 | > 500 |  |  | 14.7 ± 6.3 | highly sensitive | 1.56 |  | significantly reduce |  | 
6 | Cc1ccc(/C(=N/O)NCCCN(C)CCCN/C(=N\O)c2ccc(C)cc2)cc1 [JJMB9] |  |  | 16 | 40 ± 7 | 8.5 | > 500 | > 500 | > 500 | > 500 | 8.5 ± 2.5 | 5.3 ± 2.7 | 33.3 ± 2.4 | highly sensitive | 0.78 |  |  | significantly reduced | 13
